Results: US20240002789A1, “SKIN SPHEROIDS AND PROCESS OF PREPARATION AND USE THEREOF” (The Governing Council of The University of Toronto, priority 2020, published 2024)

Experiments:
Assay type in all cases: cell-based, human
[1] = system: dermal fibroblasts spheroids (DFSs); experiment: On-chip screening of active ingredients on DFSs: collagen type I and fibronectin secretion (ELISA of culture supernatant)
Procedure: The microfluidic device was first, purged for 20 min with fluorinated oil with 0.5 wt % 008-fluorosurfactant (RAN Biotechnologies, USA) at a flow rate of 0.1 mL/hr. Subsequently, the supplying channel and the microwells were filled with the hDFs-in-EKGel I suspension with a cell density of 4.9×10^5 cells/μL. After that, the cell suspension in the supplying channel was replaced with fluorinated oil with 0.5 wt % surfactants. The inlet and outlet of the microfluidics quadruplet device were then sealed with PCR sealing tape and incubated at 37° C. for 2 hours, allowing EKGel to gel. Subsequently, the complete culture medium was continuously flowed through the supplying channel at the flow rate of 0.025 mL/hr. On the second day (Day 1), hDFs-laden EKGel droplets transformed into dermal fibroblasts spheroids (DFSs). Due to the contraction of DFSs, free space was present in each microwell, which allowed the incorporation of a second layer. To introduce another layer of keratinocytes, the culture medium was replaced by fluorinated oil with 0.5 wt % surfactants.
(§1) To study the effect of vitamin C or retinol on DFSs or KDFSs, on Day 2 the complete culture medium was replaced with 1% FBS DMEM culture medium with 1% (v/v) penicillin/streptomycin containing 0, 20, or 100 μg/mL vitamin C. Retinol at concentrations of 0, 30, 45, 60 μM was dissolved in 1% FBS DMEM culture medium with 1% (v/v) penicillin/streptomycin and 0.1% dimethyl sulfoxide (DMSO). The culture supernatant was collected from the outlet every 24-hours for analysis.
The amount of procollagen type I and fibronectin synthesized by hDFs and released in the supernatant were quantified using two ELISA kits, namely, Procollagen Type I C-Peptide (PIP) ELISA kit (MK101, Takara Bio Inc.) and Fibronectin ELISA kit (MK115, Takara Bio Inc.). Procollagen type I was used as the indicator for the collagen type I synthesized from hDFs. To determine the amount of procollagen type I synthesized by the cells, 20 μL collected culture supernatant and 100 μL of the anti-PIP antibody-peroxidase (POD) were added into a 96-well microplate coated with anti-PIP antibody and incubated at 37° C. for 3 hours. To determine the amount of fibronectin synthesized by the cells, 100 μL of the supernatant was first, added to the antibody-coated 96-well microplate for 1 hour at 37° C., thus allowing the fibronectin in the supernatant to bond to the antibody-coated on the microplate.
The supernatant was then discarded, and the microplates were washed with 1×PBS (MK021, Takara Bio Inc.) three times. Subsequently, the captured fibronectin was tagged by adding 100 μL of anti-human fibronectin antibody-POD conjugate into the microplate and incubating it for another 1 hour at 37° C. Upon completion of the antibody-POD conjugate incubation for both assays, the liquid content in the microwells was discarded and the microwells were washed four times with 1×PBS. 100 μL substrate solution (solution of 3,3′,5,5′-tetramethylbenzidine) was then added to the wells and incubated at room temperature for 15 min. Subsequently, 100 μL stop solution (MK021, Takara Bio Inc.) was added to each well. After stopping the reaction between POD and substrate, the absorbance of the contents of each microwell at 450 nm was measured by the CLARIOstar plate reader.

[2] = system: dermal fibroblasts spheroids (DFSs); experiment: Immunofluorescence staining of collagen type I and fibronectin deposited in DFSs on the chip; conditions: 72-hour treatment, 100 μg/mL vs 0 μg/mL vitamin C
Procedure: as §1
The immunofluorescence staining on DFSs/KDFSs formed in the microfluidic device was conducted by flowing a series of solutions at a flow rate of 0.15 mL/hr into the supplying microchannel in the following order. First, 1× Hanks' Balanced Salt Solution (HBSS) was flowed into the device for 20 min to remove the cell culture medium. Subsequently, a 5% formalin solution in HBSS was flowed to fix the DFSs/DKFSs. Subsequently, the formalin was washed away by purging 0.1 M glycine in 1×HBSS for 60 min. To permeate the DFSs/KDFSs, 0.5% triton-X in 1×HBSS was flowed into the device for 30 min. Subsequently, an immunofluorescence (IF) solution (consisting of 0.05 wt % NaN3, 0.1 wt % bovine serum albumin, 0.2 vol. % triton-X-100 and 0.05 vol. % Tween-20 in HBSS) was flowed to the microfluidics for 45 min. Primary blocking solution (10 wt % goat serum in IF washing solution) was then flowed for 60 min. […]

[3] = system: keratinocyte-dermal fibroblasts spheroids (KDFSs); experiment: Vitamin C screening on KDFSs: collagen type I and fibronectin secretion; conditions: 24-hour treatment; KDFSs from two lineages of dermal fibroblasts
Procedure: Keratinocytes were suspended in EKGel II precursor solution at a cell/gel mass ratio of 75:25. The keratinocytes-in-EKGel II suspension was then purged into the channel and filled the microwells. Consequently, the cell suspension in the supplying channel was washed away by fluorinated oil mixed with 0.5 wt % surfactants. The device was sealed and incubated at 37° C. for 1 hour. Finally, the complete culture medium was flowed to the microfluidic device at the flow rate of 0.025 mL/hr. On Day 2, keratinocytes aggregated and integrated with the hDF core to form layered skin spheroids, KDFSs.
To study the effect of vitamin C or retinol on DFSs or KDFSs, on Day 2 the complete culture medium was replaced with 1% FBS DMEM culture medium with 1% (v/v) penicillin/streptomycin containing 0, 20, or 100 μg/mL vitamin C. […]
The amount of procollagen type I and fibronectin synthesized by hDFs and released in the supernatant were quantified using two ELISA kits, namely, Procollagen Type I C-Peptide (PIP) ELISA kit (MK101, Takara Bio Inc.) and Fibronectin ELISA kit (MK115, Takara Bio Inc.). […]
The supernatant was then discarded, and the microplates were washed with 1×PBS (MK021, Takara Bio Inc.) three times. […] After stopping the reaction between POD and substrate, the absorbance of the contents of each microwell at 450 nm was measured by the CLARIOstar plate reader.

[4] = 100 μg/mL vitamin C for 24-hours

SMILES	effect on fibronectin production in DFSs ([1]; retinol 30 μM, preliminary study)	effect on fibronectin production in DFSs ([1]; retinol 45 μM, preliminary study)	effect of retinol on DFSs (fibronectin production) ([1]; retinol 60 μM, longer incubation time (day 5), preliminary study)	effect on collagen expression in DFSs ([1]; retinol 30, 45, 60 μM, preliminary study)	deposition of collagen type I in DFSs [2]	deposition of fibronectin in DFSs [2]	collagen type I secretion from DFSs [1, 4]	fibronectin secretion from DFSs [1, 4]	concentration required to stimulate the production of collagen and fibronectin in KDFSs compared to DFSs [3]
CC1=C(/C=C/C(C)=C/C=C/C(C)=C/CO)C(C)(C)CCC1 [retinol]	positive and significant effect	positive and significant effect	negative effect	significant positive effect of retinol was not yet observed	–	–	–	–	–
O=C1O[C@H]([C@@H](O)CO)C(O)=C1O [vitamin C]	–	–	–	–	increased	increased	increased level	increased level	a higher concentration of vitamin C was required
